Reference: patent publication US10766890B2, “Hepatitis B core protein modulators” (Assembly Biosciences, Inc., priority 2015, dated 2020)

Experiments:
HBV = test: Viral load production in AD38 cells, quantitative PCR of the core sequence in supernatant; format: cell-based; conditions: 10 μM compound, 6 days at 37° C., supernatant qPCR vs DMSO control; for activity at 10 µM: Hepatitis B virus, 144 h, read-out: AD38 Viral Load (%) (VL with cmpd/VL in DMSO control) at 10 μM
Procedure: (§1) Example 63: Assay Measuring Activity of Compounds on Viral Production in and on Viability of AD38 Cells
(§2) AD38 cells were then re-suspended with 10 mL of Treatment Medium and counted. Wells of a collagen coated 96-well NUNC microtiter plate were seeded at 50,000/well in 180 μL of Treatment Medium, and 20 μL of in treatment media with either 10% DMSO (Control) or a 10× solution of compound in 10% DMSO was added. Plates were incubated for 6 days at 37° C.
Viral load production was assayed by quantitative PCR of the core sequence. […] The PCR mixture was incubated at 45° C. for 5 minutes, then 95° C. for 10 min, followed by 40 cycles of 10 seconds at 95° C. and 20 seconds at 60° C. Viral load was quantitated against known standards by using ViiA™ 7 Software. Viral load in the supernatant from wells with treated cells were compared against viral load in supernatant from DMSO control wells (≥3 per plate).

AD38 cells = test: Viability of AD38 cells, Promega CellTiter-Glo; format: cell-based; conditions: 10 μM compound, 6 days, CellTiter-Glo luminescence, controls being 100%
Procedure: as §1, §2
At the end of compound treatment period cell viability was assessed using a Promega CellTiter-Glo protocol. All supernatant was removed the previously treated 96-well microtiter plate, and 50 μL Tetracycline-free treatment medium (DMEM/F12 (1:1), 1×Pen/step (cat#: 30-002-CL, Mediatech, Inc), with 2% FBS, Tet-system approved (cat#: 631106, Clontech), and 1% DMSO was added back to each well. Another 50 μL of CellTiter-Glo reagent solution (Promega, G7573) was then added at room temperature and the contents mixed for 2 minutes on an orbital shaker to induce cell lysis. This was followed by incubation at room temperature for 10 minutes to stabilize the luminescent signal. The luminescence was recorded for 0.2 seconds per well on a Tecan multimode platereader (Infinite M1000 pro). The luminescent signal from each well was normalized against that of untreated (DMSO) control wells. All results in Table 3 were reported with percent viability (with controls being 100%).

Row | Compound | AD38 Viral Load (%) (VL with cmpd/VL in DMSO control) at 10 μM (HBV) | AD38 Viability Normalized Result (cmpd/DMSO %) at 10 μM (AD38 cells) | activity at 10 µM (HBV)
1 | 11-oxo-N-(4-(4-((2,2,2-trifluoroacetyl)-λ^4-azanyl)butoxy) phenethyl)-10,11-dihydrodibenzo[b, f][1,4]thiazepine-8-carboxamide 5,5-dioxide [Compound 482] | 16.3% | 101% | –
2 | O=C(NCCOc1ccc(F)cc1)c1ccc2c(c1)NC(=O)c1ccccc1S2(=O)=O [Compound 469] | – | 100% | 4.1%
3 | O=C(NCC(c1ccccc1)N1CCCC1)c1ccc2c(c1)NC(=O)c1ccccc1S2(=O)=O (stereo not shown) [Compound 471] | – | 103% | 72.6%
4 | O=C(NCCC(c1ccccc1)N1CCCC1)c1ccc2c(c1)NC(=O)c1ccccc1S2(=O)=O (stereo not shown) [Compound 472] | – | 105% | 32.6%
5 | O=C(NCCc1ccc(-c2cnn[nH]2)cc1)c1ccc2c(c1)NC(=O)c1ccccc1S2(=O)=O [Compound 475, N-(4-(1H-1,2,3-triazol-5-yl)phenethyl)-11-oxo-10,11-dihydrodibenzo[b,f][1,4]thiazepine-8-carboxamide 5,5-dioxide] | – | 96% | 0.7%
6 | O=C(NCCCCOc1ccc(CCNC(=O)c2ccc3c(c2)NC(=O)c2ccccc2S3(=O)=O)cc1)OCc1ccccc1 [Compound 481] | – | 91% | 0.5%
7 | CN1c2ccc(C(=O)NCCc3ccc(S(=O)(=O)N(C)C)cc3)cc2NC(=O)c2ccccc21 [Compound 498] | – | 76% | 13.8%
8 | CCN1c2ccc(C(=O)NCCc3ccc(S(=O)(=O)N(C)C)cc3)cc2NC(=O)c2ccccc21 [Compound 501] | – | 91% | 5.5%
9 | O=C(NCCc1ccc(-c2ccccc2)cc1)c1ccc2c(c1)NC(=O)c1ccccc1N2 [Compound 508] | – | 103% | 59.1%
10 | CN(C)S(=O)(=O)c1ccc(CCNC(=O)c2ccc3c(c2)NC(=O)c2ccccc2N3)cc1 [Compound 510] | – | 92% | 21.4%
11 | CCC(CNC(=O)c1ccc2c(c1)NC(=O)c1ccccc1S2(=O)=O)c1ccccc1 (stereo not shown) [Compound 530] | – | 92% | 5%
12 | O=C(NCCc1ccc(-c2ccc(F)cc2)cc1)c1ccc2c(c1)NC(=O)c1ccccc1S2(=O)=O [Compound 533] | – | 3% | 0.6%
13 | O=C(NCc1ccc(-c2cncnc2)cc1)c1ccc2c(c1)NC(=O)c1ccccc1S2 [Compound 537] | – | 100% | 51.5%
14 | O=C(NCCc1ccc(-c2ccc(F)cc2)cc1)c1ccc2c(c1)NC(=O)c1ccccc1S2 [Compound 538] | – | 62% | 8.1%
15 | O=C(NCc1ccc(-c2ccccc2)cc1)c1ccc2c(c1)NC(=O)c1ccccc1S2(=O)=O [Compound 563] | – | 59% | 0.9%
16 | O=C(NCc1ccc(-c2ccc(F)cc2)cc1)c1ccc2c(c1)NC(=O)c1ccccc1S2(=O)=O [Compound 564] | – | 29% | 0.9%
17 | O=C(NCc1cccc(-c2ccccc2)c1)c1ccc2c(c1)NC(=O)c1ccccc1S2(=O)=O [Compound 565] | – | 105% | 1.5%
18 | O=C(NCc1cccc(-c2ccc(F)cc2)c1)c1ccc2c(c1)NC(=O)c1ccccc1S2(=O)=O [Compound 566] | – | 95% | 0.6%
19 | O=C(NCc1ccc(-n2nccn2)cc1)c1ccc2c(c1)NC(=O)c1ccccc1S2(=O)=O [Compound 567] | – | 104% | 3.3%
20 | O=C(NCc1cccc(-n2nccn2)c1)c1ccc2c(c1)NC(=O)c1ccccc1S2(=O)=O [Compound 568] | – | 101% | 3%
21 | O=C(NCc1ccc(-c2cn(Cc3ccccc3)nn2)cc1)c1ccc2c(c1)NC(=O)c1ccccc1S2(=O)=O [Compound 569-A] | – | 97% | 1.5%

Row | Compound | AD38 Viral Load (%) (VL with cmpd/VL in DMSO control) at 10 μM (HBV) | AD38 Viability Normalized Result (cmpd/DMSO %) at 10 μM (AD38 cells) | activity at 10 µM (HBV)
22 | O=C(NCc1ccc(-c2c[nH]nn2)cc1)c1ccc2c(c1)NC(=O)c1ccccc1S2(=O)=O [Compound 569] | – | 100% | 2.8%
23 | O=C(NCc1cccc(-c2cnn[nH]2)c1)c1ccc2c(c1)NC(=O)c1ccccc1S2(=O)=O [Compound 570] | – | 112% | 8.7%
24 | O=C(NCc1ccc(-c2ccc(O)cc2)cc1)c1ccc2c(c1)NC(=O)c1ccccc1S2(=O)=O [Compound 638] | – | 7% | 8.6%
25 | O=C(NCc1ccc(-c2cccc(O)c2)cc1)c1ccc2c(c1)NC(=O)c1ccccc1S2(=O)=O [Compound 639] | – | 34% | 4.5%
26 | C[C@H](NC(=O)c1ccc2c(c1)NC(=O)c1ccccc1S2(=O)=O)c1ccc(-c2ccc(O)cc2)cc1 [Compound 640] | – | 1% | 4.4%
27 | C[C@@H](NC(=O)c1ccc2c(c1)NC(=O)c1ccccc1S2(=O)=O)c1ccc(-c2ccc(O)cc2)cc1 [Compound 643] | – | 104% | 30%
28 | O=C(NCc1ccc(-c2ccc3[nH]cnc3c2)cc1)c1ccc2c(c1)NC(=O)c1ccccc1S2(=O)=O [Compound 644] | – | 89% | 31.2%
29 | CN(C)c1ccc(-c2ccc(CNC(=O)c3ccc4c(c3)NC(=O)c3ccccc3S4(=O)=O)cc2)cc1 [Compound 646] | – | 92% | 6%
30 | O=C(NCc1ccc(-c2ccc3[nH]ccc3c2)cc1)c1ccc2c(c1)NC(=O)c1ccccc1S2(=O)=O [Compound 647] | – | 102% | 0.4%
31 | Cl.NCc1ccc(-c2ccc(CNC(=O)c3ccc4c(c3)NC(=O)c3ccccc3S4(=O)=O)cc2)cc1 [Compound 652, N-((4′-(aminomethyl)-[1,1′-biphenyl]-4-yl)methyl)-11-oxo-10,11-dihydrodibenzo[b,f][1,4]thiazepine-8-carboxamide 5,5-dioxide hydrochloride] | – | 86% | 36.4%
32 | N#Cc1ccc(-c2ccc(CNC(=O)c3ccc4c(c3)NC(=O)c3ccccc3S4(=O)=O)cc2)cc1 [Compound 652-A, N-((4′-cyano-[1,1′-biphenyl]-4-yl)methyl)-11-oxo-10,11-dihydrodibenzo[b,f][1,4]thiazepine-8-carboxamide 5,5-dioxide] | – | 36% | 4.6%
33 | CN(C)CCOc1ccc(-c2ccc(CNC(=O)c3ccc4c(c3)NC(=O)c3ccccc3S4(=O)=O)cc2)cc1 [Compound 657] | – | 104% | 19.4%
34 | CN(Cc1ccc(-c2ccc(O)cc2)cc1)C(=O)c1ccc2c(c1)NC(=O)c1ccccc1S2(=O)=O [Compound 662] | – | 34% | 20.8%
35 | N#Cc1cccc(-c2ccc(CNC(=O)c3ccc4c(c3)NC(=O)c3ccccc3S4(=O)=O)cc2)c1 [Compound 676-A] | – | 98% | 5.9%
36 | O=C(NCc1ccc(-c2ccc3[nH]ncc3c2)cc1)c1ccc2c(c1)NC(=O)c1ccccc1S2(=O)=O [Compound 678] | – | 76% | 1.4%
37 | CN(C)CCOc1cccc(-c2ccc(CNC(=O)c3ccc4c(c3)NC(=O)c3ccccc3O4)cc2)c1 [Compound 717] | – | 0% | 170%
38 | O=C(NCc1ccc(-c2ccc(O)cc2)cc1)c1ccc2c(c1)NC(=O)c1ccccc1O2 [Compound 719] | – | 110% | 4.6%
39 | O=C(NCc1ccc(-c2cccc(O)c2)cc1)c1ccc2c(c1)NC(=O)c1ccccc1O2 [Compound 720] | – | 102% | 48.5%
40 | O=C(NCc1ccc(-c2ccc(O)cc2)c(Cl)c1)c1ccc2c(c1)NC(=O)c1ccccc1O2 [Compound 721] | – | 29% | 9.7%
41 | O=C(NCc1ccc(-c2ccc(O)cc2Cl)cc1)c1ccc2c(c1)NC(=O)c1ccccc1O2 [Compound 722] | – | 29% | 8.8%
